From patent publication US10941157B2, “Pesticidal compositions and uses thereof” (Gilead Apollo, LLC, priority 2015, dated 2021)
≈ marks a conversion by molar mass, not a printed value.

Experiments:
Botrtyis cinerea (Bc) = assay: In vitro pathogen growth inhibition assay, Bc; type: cell-based; conditions: 48 h, ≥90% growth inhibition; 48 hours; vs 2% DMSO control; read-out: Compound Concentration (ppm) sufficient for ≥90% inhibition of Bc
How it was run: (§1)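 Spores in 17% V8 liquid medium, or 1.5 mm Rs mycelial plugs in ¼ PDB, incubated with compound; final concentration checked by OD600 for precipitation. OD readings at 24 and 48 h, blank-subtracted, plus visual ratings; value is concentration giving ≥90% growth inhibition.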

[1] = system: Collectotrichum graminicola (Cg); assay: In vitro pathogen growth inhibition assay, Cg; type: cell-based; conditions: 48 h, ≥90% growth inhibition; 48 hours; vs 2% DMSO control; read-out: Compound Concentration (ppm) sufficient for ≥90% inhibition of Cg
How it was run: as §1

Diplodia maydis (Dm) = assay: In vitro pathogen growth inhibition assay, Dm; type: cell-based; conditions: Stenocarpella maydis, 48 h, ≥90% growth inhibition; 48 hours; vs 2% DMSO control; read-out: Compound Concentration (ppm) sufficient for ≥90% inhibition of Dm
How it was run: (§2)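 Value reported is the compound concentration reaching ≥90% growth inhibition, from OD readings at 24 and 48 h after blank subtraction, confirmed visually. Inoculum was spores diluted in 17% V8 medium, except Rs, using 1.5 mm mycelial plugs in ¼ PDB; actual compound concentration corrected via OD600.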

[2] = system: Fusarium moniliforme (Fm); assay: In vitro pathogen growth inhibition assay, Fm; type: cell-based; conditions: Fusarium verticillioides; ≥90% growth inhibition; 48 hours; vs 2% DMSO control; read-out: Compound Concentration (ppm) sufficient for ≥90% inhibition of Fm
How it was run: as §1

[3] = system: Fusarium virguliforme (Fv); assay: In vitro pathogen growth inhibition assay, Fv; type: cell-based; conditions: ≥90% growth inhibition, 48 hours, vs 2% DMSO control, read-out: Compound Concentration (ppm) sufficient for ≥90% inhibition of Fv
How it was run: as §2

[4] = system: Phytophthora capsici (Pc); assay: In vitro pathogen growth inhibition assay, Pc; type: cell-based; conditions: 48 h, ≥90% growth inhibition, 48 hours, vs 2% DMSO control, read-out: Compound Concentration (ppm) sufficient for ≥90% inhibition of Pc
How it was run: as §2

Rhizoctonia solani (Rs) = assay: In vitro pathogen growth inhibition assay, Rs (mycelial plugs); type: cell-based; conditions: Rhizoctonia solani, 48 h, ≥90% growth inhibition; mycelial plugs; 48 hours; vs 2% DMSO control; read-out: Compound Concentration (ppm) sufficient for ≥90% inhibition of Rs
How it was run: as §2

Septoria tritici (St) = assay: In vitro pathogen growth inhibition assay, St; type: cell-based; conditions: Zymoseptoria tritici, 48 h, ≥90% growth inhibition; 48 hours; vs 2% DMSO control; read-out: Compound Concentration (ppm) sufficient for ≥90% inhibition of St
How it was run: as §1

[5] = system: Blumeria graminis f. sp. hordei; assay: Foliar protection test for barley powdery mildew control; type: in vivo; conditions: foliar spray on Hordeum vulgare cv. Perry, inoculated 24 hours after treatment, evaluated 7 days later
How it was run: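 Six-day-old barley (cv. Perry) sprayed to wetness on both leaf sides; 24 h later inoculated by shaking spores from infected stock plants. Kept at 20 to 22° C, 70% relative humidity; mildew colonization assessed 7 days later.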

Sphaerotheca fuliginea = assay: Foliar protection for cucumber powdery mildew control; type: in vivo; conditions: foliar spray on Cucumis sativus cv. Straight Eight, inoculated 24 hours after treatment, evaluated 7 days later
How it was run: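 Cucumber plants (cv. Straight Eight, 10 days old) sprayed to wetness on both leaf surfaces, then inoculated 24 h later by shaking sporulating stock plants over them. Held at 23–27 °C, 16 h light, 60% RH. Mildew colonization scored 7 days after inoculation, at compound concentrations of 10 ppm or lower.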

[6] = system: Mycosphaerella graminicola (synthetic Septoria tritici); assay: Foliar protection test for wheat septoria leaf blotch control; type: in vivo; conditions: foliar spray on Triticum aestivum cv. WinterHawk, inoculated 1 hour after treatment, evaluated 16 days later
Fusarium graminearum = type: in vivo; conditions: spray on flowering Triticum aestivum cv. Samson, inoculated 24 hours after treatment, evaluated 14 days later
Puccinia triticina = assay: Foliar protection test for wheat leaf rust control; type: in vivo; conditions: foliar application to wheat (Triticum aestivum cv. Winterhawk), evaluated 10 days later
Phakopsora pachyrhizi = assay: Foliar protection test for Asian soybean rust control; type: in vivo; conditions: foliar application to soybean (Glycine max AG4832), percent disease area evaluated 14 days later

Row | Compound | IC90 (Botrtyis cinerea (Bc)) [mg/L] | IC90 [1] [mg/L] | IC90 (Diplodia maydis (Dm)) [mg/L] | IC90 [2] [mg/L] | IC90 [3] [mg/L] | IC90 [4] [mg/L] | IC90 (Rhizoctonia solani (Rs)) [mg/L] | IC90 (Septoria tritici (St)) [mg/L] | Barley Powdery Mildew Control at a compound concentration of 10 ppm or lower [5] | Cucumber Powdery Mildew Control at a compound concentration of 10 ppm or lower (Sphaerotheca fuliginea) | Septoria Leaf Blotch Control at a compound concentration of 25 ppm or lower [6] | Wheat Fusarium Head Blight Control at a compound concentration of 25 ppm or lower (Fusarium graminearum) | Wheat Leaf Rust Control at a compound concentration of 10 ppm or lower (Puccinia triticina) | Asian Soybean Rust Control at a compound concentration of 25 ppm or lower (Phakopsora pachyrhizi)
1 | COc1ccc(F)cc1[C@H](Cn1c(=O)n([C@H](C)C(=O)N2CCCC2)c(=O)c2c(C)c(-n3nccn3)sc21)OCCC#N [Compound I-202, 3-((R)-1-(5-fluoro-2-methoxyphenyl)-2-(5-methyl-2,4-dioxo-3-((R)-1-oxo-1-(pyrrolidin-1-yl)propan-2-yl)-6-(2H-1,2,3-triazol-2-yl)-3,4-dihydrothieno[2,3-d]pyrimidin-1(2H)-yl)ethoxy)propanenitrile] | ≥ 0.4 | 2 (≈ 3.36 µM) | 2 (≈ 3.36 µM) | 0.08 (≈ 0.134 µM) | 0.4 (≈ 0.672 µM) | ≥ 50 | 0.4 (≈ 0.672 µM) | > 50 | A (from 70% to 84% control of barley powdery mildew) | AA (≥85% control of cucumber powdery mildew) | D (<25% control of wheat septoria leaf blotch) | D (<25% control of wheat fusarium head blight) | A (from 70% to 84% control of wheat leaf rust) | A (from 70% to 84% control of Asian soybean rust)
2 | CCNC(=O)C(C)(C)n1c(=O)c2c(C)c(-n3nccn3)sc2n(C[C@H](OCCC#N)c2ccccc2OC)c1=O [Compound I-208, (R)-2-(1-(2-(2-cyanoethoxy)-2-(2-methoxyphenyl)ethyl)-5-methyl-2,4-dioxo-6-(2H-1,2,3-triazol-2-yl)-1,4-dihydrothieno[2,3-d]pyrimidin-3 (2H)-yl)-N-ethyl-2-methylpropanamide] | 0.4 (≈ 0.707 µM) | 2 (≈ 3.54 µM) | 2 (≈ 3.54 µM) | 0.4 (≈ 0.707 µM) | 0.4 (≈ 0.707 µM) | > 50 | 0.08 (≈ 0.141 µM) | > 50 | AA (≥85% control of barley powdery mildew) | AA (≥85% control of cucumber powdery mildew) | AA (≥85% control of wheat septoria leaf blotch) | C (from 25 to 49% control of wheat fusarium head blight) | AA (≥85% control of wheat leaf rust) | AA (≥85% control of Asian soybean rust)
3 | COc1ccc(F)cc1[C@H](Cn1c(=O)n(C(C)(C)C(=O)NC(C)C)c(=O)c2c(C)c(-n3nccn3)sc21)OCC#N [Compound I-210, (R)-2-(1-(2-(cyanomethoxy)-2-(5-fluoro-2-methoxyphenyl)ethyl)-5-methyl-2,4-dioxo-6-(2H-1,2,3-triazol-2-yl)-1,4-dihydrothieno[2,3-d]pyrimidin-3 (2H)-yl)-N-isopropyl-2-methylpropanamide] | 0.4 (≈ 0.685 µM) | ≥ 0.4 | 0.4 (≈ 0.685 µM) | 2 (≈ 3.43 µM) | 0.4 (≈ 0.685 µM) | > 50 | 0.08 (≈ 0.137 µM) | > 50 | AA (≥85% control of barley powdery mildew) | AA (≥85% control of cucumber powdery mildew) | AA (≥85% control of wheat septoria leaf blotch) | C (from 25 to 49% control of wheat fusarium head blight) | A (from 70% to 84% control of wheat leaf rust) | AA (≥85% control of Asian soybean rust)
4 | COc1ccc(F)cc1[C@H](Cn1c(=O)n(C(C)(C)C(=O)NC(C)C)c(=O)c2c(C)c(-n3nccn3)sc21)OC[C@@H](C)C#N [Compound I-211, 2-(1-((R)-2-((S)-2-cyanopropoxy)-2-(5-fluoro-2-methoxyphenyl)ethyl)-5-methyl-2,4-dioxo-6-(2H-1,2,3-triazol-2-yl)-1,4-dihydrothieno[2,3-d]pyrimidin-3 (2H)-yl)-N-isopropyl-2-methylpropanamide] | 0.4 (≈ 0.654 µM) | 0.08 (≈ 0.131 µM) | 0.08 (≈ 0.131 µM) | 0.08 (≈ 0.131 µM) | 0.4 (≈ 0.654 µM) | > 50 | 0.08 (≈ 0.131 µM) | > 50 | AA (≥85% control of barley powdery mildew) | AA (≥85% control of cucumber powdery mildew) | AA (≥85% control of wheat septoria leaf blotch) | C (from 25 to 49% control of wheat fusarium head blight) | A (from 70% to 84% control of wheat leaf rust) | AA (≥85% control of Asian soybean rust)
5 | COc1ccc(F)cc1[C@H](Cn1c(=O)n(C(C)(C)C(=O)NC(C)C)c(=O)c2c(C)c(-n3nccn3)sc21)OC[C@H](C)C#N [Compound I-212, 2-(1-((R)-2-((R)-2-cyanopropoxy)-2-(5-fluoro-2-methoxyphenyl)ethyl)-5-methyl-2,4-dioxo-6-(2H-1,2,3-triazol-2-yl)-1,4-dihydrothieno[2,3-d]pyrimidin-3 (2H)-yl)-N-isopropyl-2-methylpropanamide] | 0.4 (≈ 0.654 µM) | 0.08 (≈ 0.131 µM) | ≥ 0.08 | 0.08 (≈ 0.131 µM) | 0.4 (≈ 0.654 µM) | > 50 | 0.08 (≈ 0.131 µM) | > 50 | AA (≥85% control of barley powdery mildew) | AA (≥85% control of cucumber powdery mildew) | AA (≥85% control of wheat septoria leaf blotch) | B (from 50 to 69% control of wheat fusarium head blight) | AA (≥85% control of wheat leaf rust) | AA (≥85% control of Asian soybean rust)
